These are literature values, as cited in US20190255075A1, “TREATMENT OF PROSTATE CANCER” (priority 2018, published 2019).

The structures appear in SMILES notation.

Data set [1] relates to hormone refractory prostate cancer. The following applies: single agent.
Data set [2] concerns prostate cancer cells. The settings on record: sirolimus used alone.

As to `CO[C@H]1C[C@@H]2CC[C@@H](C)[C@@](O)(O2)C(=O)C(=O)N2CCCC[C@H]2C(=O)O[C@H]([C@H](C)C[C@@H]2CC[C@@H](O)[C@H](OC)C2)CC(=O)[C@H](C)/C=C(\C)[C@@H](O)[C@@H](OC)C(=O)[C@H](C)C[C@H](C)/C=C/C=C/C=C/1C` [Sirolimus, sirolimus], the “patients with positive outcomes” value in data set [1] (of twelve evaluable patients with hormone refractory prostate cancer) is given as “two”. Further, the “decrease in PSA” value in data set [1] (one of the two responding patients, with partial radiographic response) was 50%. Also, the “effect on prostate cancer cells” value in data set [2] is “limited effects”.
